Values quoted from earlier work in patent EP4702989A1, “DRUG FOR TREATING LOCALLY ADVANCED UNRESECTABLE OR METASTATIC COLORECTAL CANCER AND USE THEREOF” (Shenzhen Chipscreen Biosciences Co., Ltd., priority 2023, dated 2024).
Like-named read-outs stand apart in the source and are kept apart here.

Columns and labels:
[1] = CORRECT; >=2 treatment lines; sample size 505; 2013 Lancet
[2] = CONCUR; >=3 treatment lines; sample size 136; 2015 Lancet
[3] = FRESCO; >=3 treatment lines; sample size 278; 2018 JAMA
[4] = FRESCO-2; >=3 treatment lines; sample size 461; 2023 Lancet

| Structure (SMILES) | Median PFS (months) [1] [months] | ORR [1] [%] | Median PFS (months) [2] [months] | ORR [2] [%] | Median PFS (months) [3] [months] | ORR [3] [%] | Median PFS (months) [4] [months] | ORR [4] [%] |
| --- | --- | --- | --- | --- | --- | --- | --- | --- |
| CNC(=O)c1cc(Oc2ccc(NC(=O)Nc3ccc(Cl)c(C(F)(F)F)c3)c(F)c2)ccn1 [Regorafenib] | 1.9 | 1.0 | 3.2 | 4.4 | – | – | – | – |
| CNC(=O)c1c(C)oc2cc(Oc3ncnc4cc(OC)c(OC)cc34)ccc12 [Fruquintinib] | – | – | – | – | 3.7 | 4.7 | 3.7 | 1.5 |
